Measured values as given in patent US20190030139A1, “USP10 MODULATION OF AMPK AND MTOR” (MAYO FOUNDATION FOR MEDICAL EDUCATION AND RESEARCH, priority 2016, published 2019).

Legend:
Ub-AMC = test: In vitro deubiquitinase enzymatic assay with Ub-AMC; assay type: biochemical; settings: purified USP10 incubated with or without active AMPK (FIG. 9A)
Protocol: In vitro deubiquitinase enzymatic assay—In vitro enzymatic assays using ubiquitin-7-amido-4-methylcoumarin (Ub-AMC; U-550; Boston Biochem) were performed in 50-100 μl reaction buffer (20 mM HEPES-KOH [pH 7.8], 20 mM NaCl, 0.1 mg/ml ovalbumin [A7641; Sigma], 0.5 mM EDTA, and 10 mM DTT) at 25° C. Fluorescence was monitored in an INFINITE® M1000 PRO Fluorometer (TECAN).

AMPK [1] = test: AMPK in vitro kinase assay (32P incorporation into peptides); assay type: biochemical
Protocol: AMPK in vitro kinase assay—Purified AMPK (Upstate Biotechnology) was incubated with various substrates (0.5 μg) in kinase reaction buffer (15 mM HEPES, pH 7.0, 1 mm dithiothreitol, 18.75 mM MgCl2, 1.25 mM EGTA, and 125 μM ATP and 12.5 μCi of radiolabeled ATP, with or without 150 μM AMP, at 30° C. for 30 minutes. The product was separated by SDS-PAGE and subjected to autoradiography. Phosphorylation was detected by incorporation of radiolabeled [γ-32P] ATP. To study the stoichiometry of phosphorylation of the USP10 S76 [TLPRTPSYSISST (SEQ ID NO:19), synthesized by Peptide 2.0] and SAMS (Abcam) peptides by AMPK, the peptides (20 μM) were individually incubated in 100 μl of reaction buffer at 30° C. Aliquots (10 μl) were removed at various times to measure ^32P incorporation.

ubiquitinated AMPKα = test: In vitro deubiquitination of AMPKα; assay type: biochemical; settings: bacterially-expressed USP10, ubiquitinated AMPKα substrate (FIGS. 3H and 4C)
Text: In vitro deubiquitination of AMPKα—To prepare ubiquitinated AMPKα as the substrate for the in vitro deubiquitination assay, HCT116 cells were transfected with both HA-Ub and FLAG-AMPKα. […] Following extensive washing with the FLAG-lysis buffer, proteins were eluted with FLAG-peptides (Sigma). The recombinant His-USP10 and USP10CA polypeptides were expressed in BL21 cells and purified with the His-tag purification column (Novagen). For the in vitro deubiquitination assay, ubiquitinated AMPK protein was incubated with recombinant USP10 in a deubiquitination buffer (50 mM Tris-HCl pH 8.0, 50 mM NaCl, 1 mM EDTA, 10 mM DTT, 5% glycerol) overnight at 16° C.

cancer cells = test: Survival of cancer cells with and without USP10 after treatment with everolimus; assay type: cell-based
Text: FIGS. 12A and 12B are pictures of immunoblots from co-immuno-precipitation assays showing that USP10 interacts with mTOR. […] FIG. 12D is a graph plotting survival of cancer cells with and without USP10, after treatment with the mTOR inhibitor, everolimus. […] FIG. 12E is a graph plotting survival of cancer cells with and without USP10 knockdown by shRNA, after treatment with everolimus.

AMPK [2] = test: Immunoblot of AMPK activation in HCT116 cells treated with Spautin-1; assay type: cell-based; settings: indicated concentration of Spautin-1, immunoblot (FIG. 1I)
Protocol: FIG. 1A is a picture of an immunoblot showing the effect of USP10 knockdown on AMPK activation. HCT116 cells were infected with lentivirus encoding the indicated shRNAs. Cell lysates were immunoblotted as indicated. FIGS. 1B and 1C are a picture (FIG. 1B) and a graph (FIG. 1C) showing Oil-Red-O staining of HCT116 cells with or without shRNA knockdown of USP10. Control or USP10 knockdown HCT116 cells were incubated in medium supplemented with 200 μM sodium oleate overnight (20 hours) and fixed with formalin. The intracellular lipid droplet abundance was assessed by Oil-Red-O staining. The results represent the means (±SEM) of three independent experiments. **, p<0.01. FIG. 1D is a graph plotting lactate concentration in HCT116 cells. Lactate production was measured after incubation of control and USP10 knockdown HCT116 cells in medium for 48 hours. […] FIG. 1E is a graph plotting relative expression of aldoa, ldha, and pdkl mRNA in control or USP10 knockdown HCT116 cells, as determined by qPCR. Transcript levels were determined relative to actin mRNA levels, and normalized relative to control cells. […] The intracellular lipid droplet abundance was assessed by Oil-Red-O staining. […] The relative expression of aldoa, ldha, and pdkl mRNA in the indicated cells was determined by qPCR. Transcript levels were determined relative to actin mRNA levels, and normalized relative to control cells. […]

Compound: phosphorylated USP10: USP10 phosphorylated using active AMPK in vitro
- deubiquitinase activity toward Ub-AMC (Ub-AMC): much higher activity toward Ub-AMC

Compound: USP10 peptide: synthesized USP10 S76 peptide TLPRTPSYSISST (SEQ ID NO:19) (listed as Homo sapiens)
- maximal stoichiometry of phosphorylation by AMPK (AMPK [1]; after 30 minutes of incubation, calculated from FIG. 8D data (FIG. 8E)): 0.46±0.04 mol/mol
- initial rate of phosphorylation by AMPK (AMPK [1]; peptide 20 μM, 30° C., mean ±SEM of three experiments (FIG. 8D)): 155±36 pmol/min/reaction mix

Compound: WT USP10: recombinant wild type USP10 deubiquitinase (SEQ ID NO:2), bacterially expressed
- deubiquitination of AMPKα in vitro (ubiquitinated AMPKα): removed ubiquitin chain from AMPKα

Compound: CO[C@H]1C[C@@H]2CC[C@@H](C)[C@@](O)(O2)C(=O)C(=O)N2CCCC[C@H]2C(=O)O[C@H]([C@H](C)C[C@@H]2CC[C@@H](OCCO)[C@H](OC)C2)CC(=O)[C@H](C)/C=C(\C)[C@@H](O)[C@@H](OC)C(=O)[C@H](C)C[C@H](C)/C=C/C=C/C=C/1C [everolimus]
- survival of cancer cells (cancer cells; USP10 shRNA knockdown vs control shRNA (FIG. 12E)): greater effect on survival of USP10 knockdown cells than on cells treated with a control shRNA
- survival of cancer cells (cancer cells; cells with vs without USP10 (FIG. 12D)): decreased in the absence of USP10

Compound: S76A mutant: USP10 with S76 mutated to Ala
- deubiquitinase activity toward Ub-AMC (Ub-AMC): remained low

Compound: Fc1ccc(CNc2ncnc3ccc(F)cc23)cc1 [Spautin-1]
- AMPK activation (AMPK [2]): largely inhibited
